Reference: patent US8895733B2 (Novartis AG, priority 2010, dated 2014)

Target: T1, Nav 1.7 (Homo sapiens, UniProt Q15858)
T1 construct: expressed in transfected cells
Test: Whole-cell voltage clamp electrophysiology, manual patch clamp (marker b in Table of Examples)
Format: cell-based
Settings: marker b: Manual patch clamp data; for IC50: read-out: Nav 1.7 activity
Source text: a.IonWork Quattro data, b=Manual patch clamp data, c=Automated patch clamp data M=Method
Whole-Cell Voltage Clamp Electrophysiology Assay
Patch-clamp electrophysiology is considered the gold standard technique for investigation of ion channel function and pharmacology. Using this method, sodium channel currents can be measured in cells, which stably (or transiently) express the sodium channel subtype of interest. Application of compounds during such experiments provides a functional measure of the activity and potency of compounds affecting the ion channel of interest.
Electrophysiological studies can also be performed using the whole cell configuration of the standard manual patch clamp technique as described in the literature (e.g. Pflugers Arch., 1981, 391(2), 85-100). In this assay, cells that express the voltage-gated sodium channel protein of interest are exposed to the drugs by conventional microperfusion systems, or by a home-built perfusion system. A suitable voltage stimulus protocol is used to activate the voltage-gated sodium channels.
A suitable voltage stimulus protocol is used to activate voltage-gated sodium channel proteins of interest. A typical stimulus protocol may consist of sweeps of sequential voltage pulses starting from a holding potential (i.e. −65 mV), to a more positive and depolarising test pulse potential (i.e. −10 mV) and finally to a more negative and hyperpolarising potential (i.e. −100 mV). According to the biophysics of the voltage-gated ion channel of interest and interest in channel configuration the voltages and durations of the pulses as well as the overall frequency of sweeps applied might vary. Accordingly, a stimulus protocol was designed to assess compounds due to their potential to block NaV1.7 channels primarily in inactivated state. Selectivity over other voltage-gated sodium channel members was assessed by protocols that reflect the native function of the channels (i.e. heart rate or firing of neurons).
Electrophysiological studies can also be performed using the whole cell configuration of the standard manual patch clamp technique as described in the literature (e.g. Pflugers Arch., 1981, 391(2), 85-100). In this assay, cells that express the human voltage-gated sodium channel protein of interest are exposed to the drugs by conventional microperfusion systems, or by a home-built perfusion system. A suitable voltage stimulus protocol is used to activate the voltage-gated sodium channels. A suitable voltage stimulus protocol may consist of sequential voltage pulses from a holding potential, each first hyperpolarizing the cell, then depolarizing the channels for a brief period. A particularly suitable holding potential may be a voltage allowing a fraction of channels to remain in an inactivated state, like −60 mV. A suitable hyperpolarizing voltage and duration may be −120 mV for 100 ms, and depolarization voltage and duration may be −20 mV for 25 ms, and a suitable frequency of pulses may be 0.1 Hz, but may also have other parameters. Accordingly, a stimulus protocol was designed to assess compounds due to their potential to block NaV1.7 channels primarily in inactivated state. Selectivity over other voltage-gated sodium channel members was assessed by protocols that reflect the native function of the channels (i.e. heart rate or firing of neurons).

T1 sequence (Q15858 whole entry): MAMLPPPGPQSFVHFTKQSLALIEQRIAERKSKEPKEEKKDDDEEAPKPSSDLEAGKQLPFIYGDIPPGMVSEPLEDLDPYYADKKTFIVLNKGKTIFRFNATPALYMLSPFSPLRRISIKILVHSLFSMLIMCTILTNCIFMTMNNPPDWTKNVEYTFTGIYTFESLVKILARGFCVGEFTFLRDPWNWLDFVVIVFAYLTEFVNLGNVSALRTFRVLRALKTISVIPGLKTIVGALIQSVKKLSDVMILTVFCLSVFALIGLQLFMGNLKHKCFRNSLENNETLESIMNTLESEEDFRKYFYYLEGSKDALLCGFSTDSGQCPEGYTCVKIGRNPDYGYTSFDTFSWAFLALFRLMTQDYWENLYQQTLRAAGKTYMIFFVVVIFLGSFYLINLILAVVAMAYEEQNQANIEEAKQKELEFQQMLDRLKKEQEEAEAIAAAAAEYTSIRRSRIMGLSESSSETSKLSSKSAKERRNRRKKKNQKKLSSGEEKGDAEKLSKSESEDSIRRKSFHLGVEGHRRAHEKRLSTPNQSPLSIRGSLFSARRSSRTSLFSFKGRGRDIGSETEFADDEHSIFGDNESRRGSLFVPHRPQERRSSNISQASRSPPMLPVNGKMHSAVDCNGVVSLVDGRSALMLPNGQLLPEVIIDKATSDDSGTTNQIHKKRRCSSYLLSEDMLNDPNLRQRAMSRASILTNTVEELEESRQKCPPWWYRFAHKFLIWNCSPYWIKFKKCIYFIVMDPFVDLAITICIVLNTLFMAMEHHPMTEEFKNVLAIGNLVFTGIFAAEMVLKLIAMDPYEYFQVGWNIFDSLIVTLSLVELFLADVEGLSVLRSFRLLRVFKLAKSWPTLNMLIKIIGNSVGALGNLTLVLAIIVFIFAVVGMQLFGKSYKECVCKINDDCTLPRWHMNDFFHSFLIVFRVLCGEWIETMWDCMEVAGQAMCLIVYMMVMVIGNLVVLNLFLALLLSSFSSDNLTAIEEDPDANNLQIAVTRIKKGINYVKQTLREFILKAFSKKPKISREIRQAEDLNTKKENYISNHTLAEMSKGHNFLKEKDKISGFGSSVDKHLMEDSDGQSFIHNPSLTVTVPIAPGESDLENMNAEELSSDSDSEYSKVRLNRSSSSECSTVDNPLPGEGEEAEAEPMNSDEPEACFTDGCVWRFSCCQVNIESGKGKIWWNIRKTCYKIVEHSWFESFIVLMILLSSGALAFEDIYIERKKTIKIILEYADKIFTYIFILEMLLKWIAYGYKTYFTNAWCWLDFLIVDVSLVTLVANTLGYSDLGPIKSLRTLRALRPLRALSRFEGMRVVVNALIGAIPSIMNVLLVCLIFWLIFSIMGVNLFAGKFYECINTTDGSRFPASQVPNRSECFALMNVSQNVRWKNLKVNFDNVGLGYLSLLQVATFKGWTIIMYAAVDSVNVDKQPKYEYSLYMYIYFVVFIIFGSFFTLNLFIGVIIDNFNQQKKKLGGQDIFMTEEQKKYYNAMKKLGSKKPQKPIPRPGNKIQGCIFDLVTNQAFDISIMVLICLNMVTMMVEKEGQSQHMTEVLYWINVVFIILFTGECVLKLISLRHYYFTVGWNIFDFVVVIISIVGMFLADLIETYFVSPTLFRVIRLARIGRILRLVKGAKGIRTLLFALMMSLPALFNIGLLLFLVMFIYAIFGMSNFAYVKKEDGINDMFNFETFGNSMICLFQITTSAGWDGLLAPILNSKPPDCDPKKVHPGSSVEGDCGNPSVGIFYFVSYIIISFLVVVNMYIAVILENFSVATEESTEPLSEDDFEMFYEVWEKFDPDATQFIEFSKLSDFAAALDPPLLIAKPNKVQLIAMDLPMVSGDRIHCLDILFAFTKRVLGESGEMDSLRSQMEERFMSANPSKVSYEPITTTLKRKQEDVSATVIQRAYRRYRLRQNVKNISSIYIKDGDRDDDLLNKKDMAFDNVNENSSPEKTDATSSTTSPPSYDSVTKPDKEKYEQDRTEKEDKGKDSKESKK

| Structure (SMILES) | IC50 [nM] | Nav 1.7 activity, % at 10 μM |
| --- | --- | --- |
| Nc1nc(Nc2ccccc2)nc(-c2noc(-c3ccco3)n2)n1 [Example 2, 6-(5-Furan-2-yl-[1,2,4]oxadiazol-3-yl)-N-phenyl-[1,3,5]triazine-2,4-diamine] | 91 | – |
| Cc1cccc(N(C)c2nc(N)nc(-c3noc(-c4ccco4)n3)n2)c1 [Example 3, 6-(5-Furan-2-yl-[1,2,4]oxadiazol-3-yl)-N-methyl-N-(3-methylphenyl)-[1,3,5]triazine-2,4-diamine] | 272 | – |
| Cc1ccc(N(C)c2nc(N)nc(-c3noc(-c4ccco4)n3)n2)cc1 [Example 4, 6-(5-Furan-2-yl-[1,2,4]oxadiazol-3-yl)-N-methyl-N-(4-methylphenyl)-[1,3,5]triazine-2,4-diamine] | 661 | – |
| COc1cccc(N(C)c2nc(N)nc(-c3noc(-c4ccco4)n3)n2)c1 [Example 5, 6-(5-Furan-2-yl-[1,2,4]oxadiazol-3-yl)-N-methyl-N-(3-methoxyphenyl)-[1,3,5]triazine-2,4-diamine] | 791 | – |
| COc1ccc(N(C)c2nc(N)nc(-c3noc(-c4ccco4)n3)n2)cc1 [Example 6, 6-(5-Furan-2-yl-[1,2,4]oxadiazol-3-yl)-N-methyl-N-(4-methoxyphenyl)-[1,3,5]triazine-2,4-diamine] | 1940 | – |
| CN(c1ccc(Cl)cc1)c1nc(N)nc(-c2noc(-c3ccco3)n2)n1 [Example 8, 6-(5-Furan-2-yl-[1,2,4]oxadiazol-3-yl)-N-methyl-N-(4-chlorophenyl)-[1,3,5]triazine-2,4-diamine] | 339 | – |
| CN(c1ccccc1)c1nc(N)nc(-c2noc(-c3ccccn3)n2)n1 [Example 9, N-Methyl-N-phenyl-6-(5-pyridin-2-yl-[1,2,4]oxadiazol-3-yl)-[1,3,5]triazine-2,4-diamine] | 769 | – |
| CN(c1ccccc1)c1nc(N)nc(-c2noc(-c3ccccc3)n2)n1 [Example 10, N-Methyl-N-phenyl-6-(5-phenyl-[1,2,4]oxadiazol-3-yl)-[1,3,5]triazine-2,4-diamine] | 348 | – |
| CN(c1ccccc1)c1nc(N)nc(-c2noc(-c3cccs3)n2)n1 [Example 11, N-Methyl-N-phenyl-6-(5-thiophen-2-yl-[1,2,4]oxadiazol-3-yl)-[1,3,5]triazine-2,4-diamine] | 216 | – |
| CN(c1ccccc1)c1nc(N)nc(-c2noc(-c3ccc(Cl)s3)n2)n1 [Example 12, N-Methyl-6-[5-(5-chloro-thiophen-2-yl)-[1,2,4]oxadiazol-3-yl]-N-phenyl-[1,3,5]triazine-2,4-diamine] | 2320 | – |
| CN(c1ccccc1)c1nc(N)nc(-c2noc(-c3ccc(OC4CCCC4)nc3)n2)n1 [Example 13, 6-[5-(6-Cyclopentoxy-pyridin-3-yl)-[1,2,4]oxadiazol-3-yl]-N-methyl-N-phenyl-[1,3,5]triazine-2,4-diamine] | 4 | – |
| CN(c1nc(N)nc(-c2noc(-c3ccco3)n2)n1)c1ccccc1F [Example 14, N-(2-Fluoro-phenyl)-6-(5-furan-2-yl-[1,2,4]oxadiazol-3-yl)-N-methyl-[1,3,5]triazine-2,4-diamine] | 198 | – |
| CN(c1cccc(F)c1)c1nc(N)nc(-c2noc(-c3ccco3)n2)n1 [Example 15, N-(3-Fluoro-phenyl)-6-(5-furan-2-yl-[1,2,4]oxadiazol-3-yl)-N-methyl-[1,3,5]triazine-2,4-diamine] | 152 | – |
| CN(c1ccccc1)c1nc(N)nc(-c2noc(-c3ccccc3Cl)n2)n1 [Example 23, 6-[5-(2-Chloro-phenyl)-[1,2,4]oxadiazol-3-yl]-N-methyl-N-phenyl-[1,3,5]triazine-2,4-diamine] | 106 | – |
| COc1ccccc1-c1nc(-c2nc(N)nc(N(C)c3ccccc3)n2)no1 [Example 25, 6-[5-(2-Methoxy-phenyl)-[1,2,4]oxadiazol-3-yl]-N-methyl-N-phenyl-[1,3,5]triazine-2,4-diamine] | 47 | – |
| COc1ccc(-c2nc(-c3nc(N)nc(N(C)c4ccccc4)n3)no2)cc1 [Example 26, 6-[5-(4-Methoxy-phenyl)-[1,2,4]oxadiazol-3-yl]-N-methyl-N-phenyl-[1,3,5]triazine-2,4-diamine] | 148 | – |
| CN(c1ccccc1)c1nc(N)nc(-c2noc(-c3cccc(Cl)c3)n2)n1 [Example 35, 6-[5-(3-Chloro-phenyl)-[1,2,4]oxadiazol-3-yl]-N-methyl-N-phenyl-[1,3,5]triazine-2,4-diamine] | – | 44% (10 μM)^b |

| Structure (SMILES) | IC50 [nM] | Nav 1.7 activity, % at 10 μM |
| --- | --- | --- |
| CN(c1ccccc1)c1nc(N)nc(-c2noc(-c3ccc(Cl)cc3)n2)n1 [Example 36, 6-[5-(4-Chloro-phenyl)-[1,2,4]oxadiazol-3-yl]-N-methyl-N-phenyl-[1,3,5]triazine-2,4-diamine] | 165 | – |
| CN(c1ccccc1)c1nc(N)nc(-c2noc(-c3ccoc3)n2)n1 [Example 37, 6-(5-Furan-3-yl-[1,2,4]oxadiazol-3-yl)-N-methyl-N-phenyl-[1,3,5]triazine-2,4-diamine] | – | 50% (10 μM)^b |
| CCN(c1ccccc1)c1nc(N)nc(-c2noc(-c3nccs3)n2)n1 [Example 38, N-Ethyl-N-phenyl-6-(5-thiazol-2-yl-[1,2,4]oxadiazol-3-yl)-[1,3,5]triazine-2,4-diamine] | 1120 | – |
| CN(c1ccccc1)c1nc(N)nc(-c2noc(N3CCCCC3)n2)n1 [Example 46, N-Methyl-N-phenyl-6-(5-piperidin-1-yl-[1,2,4]oxadiazol-3-yl)-[1,3,5]triazine-2,4-diamine] | 511 | – |
| CN(c1ccccc1)c1nc(N)nc(-c2noc(C3CCOC3)n2)n1 (stereo not drawn) [Example 48] | 4630 | – |
| CN(c1ccccc1)c1nc(N)nc(-c2noc(-c3cncs3)n2)n1 [Example 52, N-Methyl-N-phenyl-6-(5-thiazol-5-yl-[1,2,4]oxadiazol-3-yl)-[1,3,5]triazine-2,4-diamine] | 909 | – |
| CN(c1ccccc1)c1nc(N)nc(-c2noc(-c3cncc(N)c3)n2)n1 [Example 54, 6-[5-(5-Amino-pyridin-3-yl)-[1,2,4]oxadiazol-3-yl]-N-methyl-N-phenyl-[1,3,5]triazine-2,4-diamine] | 2220 | – |
| CN(c1ccccc1)c1nc(N)nc(-c2noc(-c3ccn[nH]3)n2)n1 [Example 61, N-Methyl-N-phenyl-6-[5-(2H-pyrazol-3-yl)-[1,2,4]oxadiazol-3-yl]-[1,3,5]triazine-2,4-diamine] | 561 | – |
| COc1cccc(F)c1-c1nc(-c2nc(N)nc(N(C)c3ccccc3)n2)no1 [Example 81, 6-[5-(2-Fluoro-6-methoxy-phenyl)-[1,2,4]oxadiazol-3-yl]-N-methyl-N-phenyl-[1,3,5]triazine-2,4-diamine] | 21 | – |
| COC(=O)c1ccc(-c2nc(-c3nc(N)nc(N(C)c4ccccc4)n3)no2)s1 [Example 82, 5-{3-[4-amino-6-(methyl-phenyl-amino)-[1,3,5]triazin-2-yl]-[1,2,4]oxadiazol-5-yl}-thiophene-2-carboxylic acid methyl ester] | 195 | – |
| CN(c1nc(N)nc(-c2noc(-c3ccco3)n2)n1)c1cc(F)ccc1F [Example 104, N-(2,5-Difluoro-phenyl)-6-(5-furan-2-yl-[1,2,4]oxadiazol-3-yl)-N-methyl-[1,3,5]triazine-2,4-diamine] | 93 | – |
| Cc1ccc(F)c(N(C)c2nc(N)nc(-c3noc(-c4ccco4)n3)n2)c1 [Example 105, N-(2-Fluoro-5-methyl-phenyl)-6-(5-furan-2-yl-[1,2,4]oxadiazol-3-yl)-N-methyl-[1,3,5]triazine-2,4-diamine] | 59 | – |
| CN(c1nc(N)nc(-c2noc(-c3ccco3)n2)n1)c1cccc(Cl)c1F [Example 106, N-(3-Chloro-2-fluoro-phenyl)-6-(5-furan-2-yl-[1,2,4]oxadiazol-3-yl)-N-methyl-[1,3,5]triazine-2,4-diamine] | 82 | – |
| Nc1nc(Nc2cc(Cl)ccc2F)nc(-c2noc(-c3ccco3)n2)n1 [Example 108, N-(5-Chloro-2-fluoro-phenyl)-6-(5-furan-2-yl-[1,2,4]oxadiazol-3-yl)-[1,3,5]triazine-2,4-diamine] | 235 | – |
| Nc1nc(Nc2cccc(Cl)c2F)nc(-c2noc(-c3ccco3)n2)n1 [Example 111, N-(3-Chloro-2-fluoro-phenyl)-6-(5-furan-2-yl-[1,2,4]oxadiazol-3-yl)-[1,3,5]triazine-2,4-diamine] | 54 | – |
| Cc1cccc(Nc2nc(N)nc(-c3noc(-c4ccco4)n3)n2)c1F [Example 112, N-(2-Fluoro-3-methyl-phenyl)-6-(5-furan-2-yl-[1,2,4]oxadiazol-3-yl)-[1,3,5]triazine-2,4-diamine] | 87 | – |
